Laboratory results taken from patent US7271168B2, “Piperazine derivatives having SST1 antagonistic activity” (Novartis AG, priority 2001, dated 2007).
Like-named read-outs stand apart in the source and are kept apart here.

Experiments:
[1] = molecular target: somatostatin receptors (sst1) (Mus musculus, UniProt P30873); assay: somatostatin receptor affinity (pKd), mouse; type: binding
From the text: (§1) The following pKd values have been found:

[2] = molecular target: T1, Somatostatin sst1 receptors (Homo sapiens, UniProt P30872)
[3] = molecular target: T1, Somatostatin sst1 receptors; assay: somatostatin receptor affinity (pKd), human; type: binding
From the text: as §1

mice = assay: social recognition test; type: in vivo; settings: social recognition test in mice
Experimental: Moreover when given at doses of about 0.03 to 3 mg/kg p.o. to rodents, the agents of the invention counteract electroshock-induced amnesia, increase retention performance in a passive avoidance paradigm (Mondadori et. al., Pharmacology Communications 1992, 2: 93-97) and improve social recognition (Mondadori et al., Behavioural Brain Research 1996, 77: 227-229). The compounds are therefore indicated for the treatment of cognitive disturbances and learning/memory disorders.

intruder rat = assay: intruder test (intruder rat towards resident rat); type: in vivo
[4] = molecular target: somatostatin receptors (sst1) (Rattus norvegicus, UniProt P28646); assay: somatostatin receptor affinity (pKd), rat; type: binding
From the text: as §1

T1 sequence (P30872 whole entry): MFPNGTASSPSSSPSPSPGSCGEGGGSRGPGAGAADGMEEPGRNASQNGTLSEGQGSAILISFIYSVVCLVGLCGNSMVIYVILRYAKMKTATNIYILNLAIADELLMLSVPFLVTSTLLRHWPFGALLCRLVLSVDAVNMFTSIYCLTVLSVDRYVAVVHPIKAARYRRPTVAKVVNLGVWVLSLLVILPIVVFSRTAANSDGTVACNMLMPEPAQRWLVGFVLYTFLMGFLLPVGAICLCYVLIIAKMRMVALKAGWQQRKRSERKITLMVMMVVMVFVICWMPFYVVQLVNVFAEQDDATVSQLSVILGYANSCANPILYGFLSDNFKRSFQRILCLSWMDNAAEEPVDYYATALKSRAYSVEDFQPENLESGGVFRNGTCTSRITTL
somatostatin receptors (sst1) (Mus musculus, UniProt P30873), sequence (P30873 whole entry): as the sequence (P30872 whole entry) above, with G25A, G26C, A32S, T385A, T389S counted along it
somatostatin receptors (sst1) (Rattus norvegicus, UniProt P28646), sequence (P28646 whole entry): as the sequence (P30872 whole entry) above, with S8P, S11T, P16S, S20G, G25V, G26C, A32S, A45S, T385A, T389S counted along it

selectivity among somatostatin receptors [2] | Kd ([4]; rat, read-out: pKd (converted)) | Compound | Kd [1] | Kd [3] | learning/memory performance (mice) | duration of social contacts of the intruder rat towards the resident rat (intruder rat) | Kd [4]
sst1 selective | 0.501 nM | CN(CCC(=O)N1CCN(c2ccc(F)c(F)c2)CC1)CCC1c2ccccc2-c2ccccc21 [Compound B, 1-[4-(3,4-difluoro-phenyl)-piperazin-1-yl]-3-{[2-(9H-fluoren-9-yl)-ethyl]-methyl-amino}-propan-1-one] | 2.51 to 5.01 nM | 2.51 to 6.31 nM | specific enhancing effect | significantly increase | –
– | – | CN(CCC(=O)N1CCN(c2ccc(F)c(F)c2)CC1)CCC1c2ccccc2Oc2ccccc21 [Compound A, 1-[4-(3,4-difluoro-phenyl)-piperazin-1-yl]-3-{methyl-[2-(9H-xanthen-9-yl)-ethyl]-amino}-propan-1-one] | 3.98 to 10 nM | 1.58 to 5.01 nM | specific enhancing effect | significantly increase | 0.794 nM
